Experimental data as given in PMC3325260, “Label-Free Phenotypic Profiling Identified D-Luciferin as a GPR35 Agonist” (PLoS ONE, 2012).
Where two headings read alike, the source gives them in different places.

How the values were obtained:
[1] = test system: ERK1/2 phosphorylation in HT-29 cells; assay: ERK phosphorylation, Western blot; type: cell-based, human; settings: for effect on the D-luciferin-induced ERK phosphorylation: 5 min after 32 µM D-luciferin, antagonist at different doses
Excerpt: Since ligand-directed functional selectivity or biased agonism is quite common to many, if not all, GPCRs, we next examined the activity of D-luciferin using ERK phosphorylation, receptor internalization and Tango β-arrestin translocation assays. ERK phosphorylation is a hallmark of the activation and signaling of many GPCRs including GPR35 [20].
The phosphorylated ERK and total ERK were blotted, and actin was used as control. Representative images obtained from 2 independent measurements were used.
The p44/42 MAP kinases were examined using Western blotting. Whole cell lysates were collected after the cells were treated with a compound or DMSO for 1 hr. Equivalent gel loading was confirmed by probing with anti-actin body. The total ERK1/2 and phosphorylated ERK1/2 were blotted using respective antibodies.

[2] = biological target: T1, endogenous GPR35 in HT-29 cells (Homo sapiens, UniProt Q9HC97); assay: DMR antagonist assay (antagonist pre-treatment, then agonist); type: cell-based; parameters: endogenous in cells; host or cells: HT-29; settings: for IC50: 5 min pre-stimulation with antagonist, then D-luciferin at 32 µM, n = 4, read-out: apparent IC50 of blocking the DMR induced by D-luciferin
Description: (§1) Epic® is a wavelength interrogation reader system tailored for resonant waveguide grating biosensors in microtiter plates. This system consists of a temperature-control unit (26°C), an optical detection unit, and an on-board liquid handling unit with robotics. The detection unit is centered on integrated fiber optics, and enables kinetic measures of cellular responses with a time interval of ∼15 sec. Cells were directly seeded in Epic® plates and cultured overnight to form confluent monolayer in the cell culture medium. The cell seeding density was 32, 000 cells per well, unless specifically mentioned. After being washed twice, the cells were maintained with HBSS (1× Hanks balanced salte buffer, 10 mM Hepes-KOH, pH 7.1) and further incubated inside the system for 1 hr. […] The assay vehicle containing equal amount of DMSO (dimethyl sulfoxide) was used as a control. All ligand-induced DMR were background corrected.

[3] = biological target: T1, endogenous GPR35 in HT-29 cells; parameters: endogenous in cells; host or cells: HT-29; method as in PMID 21950657; settings: up to 64 µM; cited from earlier work
[4] = biological target: T1, endogenous GPR35 in HT-29 cells; parameters: endogenous in cells; host or cells: HT-29; method as in PMID 21950657; settings: cited from earlier work
[5] = biological target: T1, endogenous GPR35 in HT-29 cells; assay: cell-based
Description: as §1, with “All DMR assays were performed using Epic® system (Corning Inc.). Epic® is” for “Epic® is”

[6] = biological target: T1, endogenous GPR35 in HT-29 cells
Description: All data represent mean ± s.d. from 2 independent measurements, each in duplicate (n = 4).
as §1, with “All DMR assays were performed using Epic® system (Corning Inc.). Epic® is” for “Epic® is”

[7] = biological target: T1, endogenous GPR35 in HT-29 cells; settings: 32 µM, 1 hr
Excerpt: Representative images obtained from 2 independent measurements were used.

[8] = biological target: T2, human GPR35 in Tango GPR35-bla U2OS cells (Homo sapiens, UniProt Q9HC97)
[9] = biological target: T2, human GPR35 in Tango GPR35-bla U2OS cells; assay: cell-based; settings: read-out: maximal response relative to the zaprinast maximal response
[10] = test system: purified luciferase enzyme; settings: binding to purified luciferase enzyme; cited from earlier work
[11] = biological target: T1, endogenous GPR35 in HT-29 cells; assay: DMR agonist assay in native HT-29 cells; type: cell-based; parameters: endogenous in cells; host or cells: HT-29; settings: for maximal P-DMR amplitude: HT-29 cells, picometer shift of resonant wavelength, n = 36; for DMR response of the compound alone: HT-29, up to 64 µM
Excerpt: First, multiple DMR assays were employed to characterize the pharmacology of D-luciferin in HT-29 cells, a native cell line endogenously expressing GPR35 [18]. […] Second, D-luciferin-induced internalization of endogenous GPR35 in HT-29 cells was examined. Third, D-luciferin-induced ERK phosphorylation in the absence and presence of GPR35 antagonists was examined in HT-29 cells. Fourth, Tango β-arrestin translocation assay was finally employed to examine the agonism of D-luciferin to cause β-arrestin translocation in an engineered cell line.
as §1, with “All DMR assays were performed using Epic® system (Corning Inc.). Epic® is” for “Epic® is”

T1 sequence (Q9HC97 whole entry): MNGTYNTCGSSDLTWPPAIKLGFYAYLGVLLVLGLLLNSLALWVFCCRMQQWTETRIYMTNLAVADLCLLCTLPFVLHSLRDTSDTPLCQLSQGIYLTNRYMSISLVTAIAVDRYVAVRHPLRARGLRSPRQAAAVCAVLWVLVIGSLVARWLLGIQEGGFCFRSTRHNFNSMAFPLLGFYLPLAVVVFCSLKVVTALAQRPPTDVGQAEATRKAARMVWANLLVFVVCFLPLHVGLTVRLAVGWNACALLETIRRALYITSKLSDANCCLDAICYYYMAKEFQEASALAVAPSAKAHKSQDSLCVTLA
T2 sequence (Q9HC97 whole entry): as above

O=C(O)c1cc2ccccc2c(Cc2c(O)c(C(=O)O)cc3ccccc23)c1O [pamoic acid]
ERK phosphorylation ([1]; 1 µM, 30 min after treatment): much lower ERK phosphorylation

Cc1c(C(=O)O)sc2c(Br)csc12 [YE210]
ERK phosphorylation ([1]; 1 µM, 30 min after treatment): led to ERK phosphorylation

COC(=O)c1cnn(-c2ccc(F)cc2F)c1C=NNC(=S)NC(C)(C)C [SPB05142, methyl-5-[(tert-butylcarbamothioylhydrazinylidene)-methyl]-1-(2,4-difluorophenyl)-pyrazole-4-carboxylate]
ERK phosphorylation by compound alone ([1]; 25 µM): weak but detectable ERK phosphorylation | effect on the D-luciferin-induced ERK phosphorylation [1]: dose-dependently attenuated | IC50 [2]: 1.5 ± 0.2 µM | D-luciferin DMR in presence of antagonist at the two highest doses ([2]; SPB05142 at 16 and 32 µM, D-luciferin 32 µM): small but detectable negative DMR signal | DMR response of the compound alone [3]: did not lead to any detectable DMR | blockade of the DMR induced by zaprinast [4]: almost completely blocked

O=C(O)[C@H]1CSC(c2nc3ccc(O)cc3s2)=N1 [D-luciferin, (S)-2-(6′-hydroxy-2′-benzothiazolyl)thiazoline-4-carboxylic acid]
IC50 [5]: 6.8 ± 0.7 µM | effect on the potency of pamoic acid in DMR co-stimulation ([6]; D-luciferin at different fixed doses, up to 50 µM): did not alter the potency | effect on DMR of pamoic acid at 200 nM (saturating concentration) ([6]; high doses of D-luciferin): reduced the DMR in a dose-dependent manner | time of maximum ERK phosphorylation after stimulation ([1]; 32 µM D-luciferin): 2 min | ERK phosphorylation ([1]; 32 µM D-luciferin for different times): led to phosphorylation of ERK in a time-dependent manner | internalization of endogenous GPR35 [7]: remarked internalization | effect on the maximal response of zaprinast, Tango co-stimulation ([8]; 100 µM D-luciferin): only slightly suppressed | effect on the maximal response of zaprinast, Tango co-stimulation ([8]; 1 mM D-luciferin): suppressed the maximal response | effect on the potency of zaprinast, Tango co-stimulation ([8]; D-luciferin at 100 µM and 1 mM): little impact | Emax [9]: 20% | Km [10]: 16 µM | maximal P-DMR amplitude [11]: 198±12 pm

COC(=O)c1cnn(-c2ccc(F)cc2F)c1/C=N/NC(=S)Nc1ccccc1 [SPB05143]
DMR response of the compound alone [11]: little response | IC50 [2]: 2.6 ± 0.3 µM

COC(=O)c1cnn(-c2ccc(F)cc2F)c1/C=N/NC(N)=S [SPB05140]
DMR response of the compound alone [11]: little response | IC50 [2]: 5 ± 0.9 µM

CC(/C=C1\SC(=S)N(CCCC(=O)Nc2ccc(C(=O)O)c(O)c2)C1=O)=C\c1ccccc1 [ML145]
effect on the D-luciferin-induced ERK phosphorylation [1]: dose-dependently attenuated

CCCOc1ccccc1-c1nc2nn[nH]c2c(=O)[nH]1 [zaprinast]
ERK phosphorylation ([1]; 1 µM, 30 min after treatment): led to ERK phosphorylation | maximal P-DMR amplitude [11]: 276±17 pm
